Here are results for 13 compounds from patent US10106522B2, “Benzimidazole derivatives as antihistamine agents” (Faes Farma, S.A., priority 2014, dated 2018).

The structures appear in SMILES notation.

One test deals with human histamine H1-receptor (Homo sapiens (Human), UniProt P35367). Briefly: Affinity for histamine H1-receptor: 3H-pyrilamine binding to membranes of CHO cells transfected with the human H1 receptor. The following applies: comparative compounds from the state of the art; same protocol; read-out: IC50, affinity for human histamine H1-receptor for comparative compounds. How it is done: Affinity for histamine H1-receptor was determined by binding studies to H1 receptors. The sample used is a suspension of membranes of CHO cells transfected with the human H1 receptor (5 mg/ml, PerkinElmer), stored at −80° C. until use. After thawing, the membranes were homogenized in assay buffer (50 mM Na/K phosphate) prepared in purified water and kept at room temperature (pH 7.4). The assay was performed in 96-well microplates. In each well, 25 μl of buffer and 25 μl of vehicle (total binding) or 10 μM pyrilamine (nonspecific binding) or the products to be tested was added. Subsequently, 200 μl of the membrane suspension was added to all wells and the microtiter plate was preincubated at 25° C. for 15 min. After this time, 25 μl of 3H-pyrilamine (1.5 nM) was added and the reaction was allowed to incubate for 60 min at 25° C. Then, free radioligand was quickly separated from bound radioligand by vacuum filtration (Multiscreen microplate Screener), performing 10 washes with assay buffer (4° C.). Subsequently 45 μl of scintillation fluid was added to each well and after sealing of the microplate, the radioactivity was quantified in a liquid scintillation counter (TopCount). The graphs of the inhibition curves and calculation the IC50 value were generated with the GraphPad Prism program.
Sequence of human histamine H1-receptor (P35367 whole entry): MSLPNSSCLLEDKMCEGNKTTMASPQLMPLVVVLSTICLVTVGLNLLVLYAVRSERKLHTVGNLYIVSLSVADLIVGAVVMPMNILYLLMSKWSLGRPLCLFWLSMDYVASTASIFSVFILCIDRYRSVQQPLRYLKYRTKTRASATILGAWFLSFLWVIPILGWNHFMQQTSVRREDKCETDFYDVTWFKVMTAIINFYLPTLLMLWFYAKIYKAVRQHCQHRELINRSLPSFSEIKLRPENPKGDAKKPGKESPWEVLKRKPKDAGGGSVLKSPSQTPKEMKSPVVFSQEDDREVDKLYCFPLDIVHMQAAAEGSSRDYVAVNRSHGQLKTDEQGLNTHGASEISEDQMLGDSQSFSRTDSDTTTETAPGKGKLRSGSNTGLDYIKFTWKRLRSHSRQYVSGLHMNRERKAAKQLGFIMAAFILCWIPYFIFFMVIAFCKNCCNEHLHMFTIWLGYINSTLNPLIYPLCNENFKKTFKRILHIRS
Affinity for histamine H1-receptor of four compounds from the state of the art was determined by binding studies to H1 receptors using the same protocol as described above. The graphs of the inhibition curves and calculation the IC50 value were generated also with the GraphPad Prism program.
For the compound `CCOCCn1c(C2CCN(CCOc3ccc(CC(=O)O)cc3)CC2)nc2ccccc21` [reference compound], the IC50 was 1990 nM.
As for `O=C(O)Cc1ccc(OCCN2CCC(c3nc4ccccc4n3CCOc3ccccc3)CC2)cc1` [reference compound], the IC50 is 271 nM.
Same read-out and setting: the figure for `O=C(O)c1ccc(OCCN2CCC(c3nc4ccccc4n3CCOc3ccccc3)CC2)cc1` [reference compound] is 260 nM; for `CCOCCn1c(C2CCN(CCc3ccc(C(C)(C)C)cc3)CC2)nc2ccccc21` [reference compound] it is 424 nM.

Still in this test, the particulars now being: compounds of the invention; 3H-pyrilamine 1.5 nM, 60 min at 25° C., CHO cell membranes; read-out: IC50, affinity for human histamine H1-receptor.
Regarding `CCOCCn1c(C2CCN(CCOCC(=O)OCC)CC2)nc2ccccc21`, the half-maximal inhibitory concentration (IC50) is 169 nM.
Regarding `CCOCCn1c(C2CCN(CCO)CC2)nc2ccccc21`, the half-maximal inhibitory concentration (IC50) came to 25 nM.
Still for that read-out and setting: the result for `OCCN1CCC(c2nc3ccccc3n2Cc2ccccn2)CC1` reads 175 nM; that for `CCOCCn1c(C2CCN(CCCO)CC2)nc2ccccc21`, 28 nM; that for `COC(=O)COCCN1CCC(c2nc3ccccc3n2CCOc2ccccc2)CC1` [drawing 32], 195 nM.
On the same count and under the same terms, the result for `CCOCCn1c(C2CCN(CCOC(C)=O)CC2)nc2ccccc21` reads 54 nM; that for `CCOCCOCCN1CCC(c2nc3ccccc3n2CCOCC)CC1`, 115 nM.
Still for that read-out and setting: the result for `CCOCCn1c(C2CCN(CCOC)CC2)nc2ccccc21` reads 93 nM.

In a further test the test system is histamine papules. The experiment in a line: Antihistaminic activity: histamine papules in rats (Evans blue extraction). In kind it is in vivo. The following applies: 20 mg/kg oral gavage, intradermal histamine one hour after administration. How it is done:
Antihistaminic activity: histamine papules [Mota I., Life Sci., 1963, 12, 917-927; Lefebvre P. et al., C. R. Soc. Biol., 1962, 156, 183-186; and Udaka K. et al., Proc Soc Exp Biol Med, 1970, 133, 1384-1387]
Rats, males and/or females (110-160 g) were used, kept under the usual conditions of temperature and humidity. Previous day, backs of the animals were shaved and since that time (16-24 h) animals were subjected to solid fast but supplied ad libitum with an aqueous solution of sucrose (8%) and sodium chloride (0.2%). The compounds to be tested were dissolved in tartaric acid (Probus 015420) 0.1 M at a concentration of 5 mg/ml and then diluted with water until the concentration to be tested. This suspension or solution of the compound to be tested was administered by rigid oral gavage at 10 mL/kg. The control group received by the same administration mode a solution of tartaric acid (Probus 015420) 0.1 M in water. One hour after oral administration (products, patterns or vehicle), and under light ether anesthesia, two bumps were made on the shaved back by intradermal injection of Histamine hydrochloride (Sigma H-7250) dissolved in sterile saline (10 mg/0.1 mL/papule). Immediately after, dye injection of Evans blue (Merck No. 3169) dissolved in sterile saline (25 mg/kg/4 mL) was administered intravenously. […] The concentration of extracted Evans blue was determined by microplate reader.
Consider `COC(=O)COCCN1CCC(c2nc3ccccc3n2CCOc2ccccc2)CC1` [drawing 37], for which the “% inhibition, histamine papules” value amounted to 45.03%.

Usually IC50 stands for the concentration that inhibits the measured activity by half.
